Reference: the NIST ThermoML archive (doi:10.1016/j.jct.2010.03.021)
Several values for one entry are separate records, joined by “and”; a condition that tells them apart may be missing. Equal entries are not always repeated.

How the values were obtained:
[1] = Crystal, Calculated from knudsen effusion weight loss
[2] = molar enthalpy of vaporization or sublimation; details: Crystal

O=[N+]([O-])c1ccccc1-n1cccc1 [1-(2-nitrophenyl)pyrrole]
[1]
Details	vapor or sublimation pressure
306.11 K	0.000106 kPa and 0.000108 kPa and 0.000109 kPa
308.2 K	0.000141 kPa and 0.000138 kPa and 0.000139 kPa
310.18 K	0.000181 kPa and 0.000173 kPa and 0.000174 kPa
312.12 K	0.000226 kPa and 0.000227 kPa and 0.000228 kPa
314.19 K	0.000291 kPa and 0.000284 kPa and 0.00029 kPa
316.18 K	0.000368 kPa and 0.000355 kPa and 0.000358 kPa
318.11 K	0.000464 kPa and 0.000466 kPa
320.18 K	0.0006 kPa and 0.000587 kPa and 0.000594 kPa
322.18 K	0.000764 kPa and 0.000733 kPa and 0.00074 kPa
324.12 K	0.000955 kPa and 0.000965 kPa and 0.000963 kPa
326.2 K	0.001224 kPa and 0.001209 kPa and 0.001238 kPa

[2], Clausius-Clapeyron Equation
Details	molar enthalpy [kcal/mol]
298.15 K	24.21
316.16 K	24

O=[N+]([O-])c1ccc(-n2cccc2)cc1 [1-(4-nitrophenyl)pyrrole]
[1]
Details	vapor or sublimation pressure
344.09 K	9.59e-05 kPa and 9.52e-05 kPa and 9.41e-05 kPa
346.13 K	0.000118 kPa and 0.000117 kPa
348.17 K	0.000145 kPa and 0.000144 kPa
350.09 K	0.000179 kPa and 0.000182 kPa and 0.000181 kPa
352.13 K	0.000219 kPa and 0.00022 kPa and 0.000227 kPa
354.18 K	0.00027 kPa and 0.000272 kPa and 0.000284 kPa
356.13 K	0.000344 kPa and 0.000343 kPa and 0.00034 kPa
358.2 K	0.00043 kPa and 0.000417 kPa and 0.000427 kPa
360.16 K	0.000505 kPa and 0.000525 kPa
362.07 K	0.000642 kPa and 0.000638 kPa and 0.000641 kPa
364.09 K	0.000766 kPa and 0.000762 kPa and 0.000783 kPa
366.16 K	0.000934 kPa and 0.000933 kPa

[2]
Details	molar enthalpy [kcal/mol]
298.15 K, Ebulliometric method (Recirculating still)	26.86
355.13 K, Clausius-Clapeyron Equation	26.2
